According to ChEMBL document CHEMBL3822396 (J Med Chem, 2016):
Active and inactive are the calls of the source. The calls are words filed in the database; no cut-off is given here.

How the values were obtained:
[1] = Volume of distribution at steady state in C57BL/6 mouse at 2 mg/kg, po or 1 mg/kg, iv by LC-MS/MS analysis; format: ADME, organism-based; conditions: in vivo, read-out: Vdss
[2] = Fraction unbound in Sprague-Dawley rat blood at 2 mg/kg, po or 1 mg/kg, iv; format: ADME, organism-based; conditions: whole blood
[3] = target: Toll-like receptor 2 (Homo sapiens) (UniProt O60603); experiment: Activation of TLR2 receptor in human monocytes assessed as inhibition of Pam2Csk4-stimulated TNF-alpha production preincubated for 30 mins prior to Pam2Csk4 stimulation at 1 uM measured after 6 hrs by immunoassay; format: cell-based
Chain of Toll-like receptor 2 (Homo sapiens) (O60603 whole entry): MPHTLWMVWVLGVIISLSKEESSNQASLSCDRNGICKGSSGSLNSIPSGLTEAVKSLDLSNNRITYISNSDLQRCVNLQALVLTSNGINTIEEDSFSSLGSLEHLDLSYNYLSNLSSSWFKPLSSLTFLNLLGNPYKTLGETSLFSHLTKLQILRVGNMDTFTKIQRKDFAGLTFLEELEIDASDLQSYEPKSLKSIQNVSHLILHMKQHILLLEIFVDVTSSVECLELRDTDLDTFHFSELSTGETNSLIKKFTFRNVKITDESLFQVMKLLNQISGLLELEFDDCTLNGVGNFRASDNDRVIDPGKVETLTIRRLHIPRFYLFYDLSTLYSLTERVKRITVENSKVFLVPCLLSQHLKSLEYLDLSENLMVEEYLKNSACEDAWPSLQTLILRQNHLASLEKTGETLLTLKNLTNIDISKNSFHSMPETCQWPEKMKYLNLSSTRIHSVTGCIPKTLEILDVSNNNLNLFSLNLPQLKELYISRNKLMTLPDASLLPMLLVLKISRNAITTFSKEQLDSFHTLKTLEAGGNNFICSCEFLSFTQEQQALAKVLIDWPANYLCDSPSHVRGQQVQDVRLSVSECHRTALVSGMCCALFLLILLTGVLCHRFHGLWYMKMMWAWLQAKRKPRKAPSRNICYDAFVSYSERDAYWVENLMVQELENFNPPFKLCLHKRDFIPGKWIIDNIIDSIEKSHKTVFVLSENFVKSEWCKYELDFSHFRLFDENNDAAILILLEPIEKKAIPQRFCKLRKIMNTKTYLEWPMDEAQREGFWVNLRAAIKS

[4] = AUC in C57BL/6 mouse at 2 mg/kg, po by LC-MS/MS analysis; format: ADME, organism-based; conditions: in vivo
[5] = AUC in Sprague-Dawley rat at 2 mg/kg, po administered through cassette dosing by LC-MS/MS analysis; format: ADME, organism-based; conditions: in vivo
Intestinal mucosa [6] = experiment: Inhibition of TNFalpha production in intestinal mucosa derived from Crohn's disease patient measured after 24 hrs by sandwich ELISA; format: functional, tissue-based; conditions: Homo sapiens
Homo sapiens = species: Homo sapiens; experiment: Activation of TFNR in human monocytes assessed as inhibition of TNF-alpha-stimulated IL8 production preincubated for 30 mins prior to TNF-alpha stimulation at 1 uM measured after 6 hrs by immunoassay; format: cell-based
[7] = Cmax in C57BL/6 mouse at 2 mg/kg, po by LC-MS/MS analysis; format: ADME, organism-based; set-up: dose 2 mg/kg, route oral; conditions: in vivo
[8] = target: T1, Receptor-interacting serine/threonine-protein kinase 3 (Homo sapiens, UniProt Q9Y572); experiment: Inhibition of RIPK3 (unknown origin) in HEK-293 cells assessed as necroptic cell death at 10 uM by cell-based assay; conditions: HEK293
Target sequence in this assay (Q9Y572 whole entry, looked up): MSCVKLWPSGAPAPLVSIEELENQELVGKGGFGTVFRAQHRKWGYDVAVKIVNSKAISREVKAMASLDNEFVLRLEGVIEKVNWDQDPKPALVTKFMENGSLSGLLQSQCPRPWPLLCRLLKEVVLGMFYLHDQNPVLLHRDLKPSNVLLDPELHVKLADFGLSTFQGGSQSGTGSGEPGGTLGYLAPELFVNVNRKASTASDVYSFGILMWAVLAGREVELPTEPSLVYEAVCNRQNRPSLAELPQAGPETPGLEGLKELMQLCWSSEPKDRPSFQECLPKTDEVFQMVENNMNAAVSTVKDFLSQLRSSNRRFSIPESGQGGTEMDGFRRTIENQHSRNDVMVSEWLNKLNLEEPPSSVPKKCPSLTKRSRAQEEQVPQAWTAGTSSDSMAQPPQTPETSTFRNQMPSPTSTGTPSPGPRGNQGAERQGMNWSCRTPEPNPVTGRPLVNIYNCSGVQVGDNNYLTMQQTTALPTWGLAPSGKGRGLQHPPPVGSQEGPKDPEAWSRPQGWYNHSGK

[9] = Oral bioavailability in Sprague-Dawley rat at 2 mg/kg by LC-MS/MS analysis; format: ADME, organism-based; conditions: in vivo
Mus musculus = experiment: Antiinflammatory activity in C57Bl/6 mouse assessed as inhibition of LPS-induced serum KC level at 10 mg/kg, po for 15 mins prior to LPS-challenge measured after 2.5 hrs; format: functional, organism-based
[10] = Clearance in Sprague-Dawley rat at 2 mg/kg, po or 1 mg/kg, iv by LC-MS/MS analysis; format: ADME, organism-based; conditions: in vivo
[11] = target: Nucleotide-binding oligomerization domain-containing protein 2 (Homo sapiens) (UniProt Q9HC29); experiment: Activation of NOD2 in human monocytes assessed as inhibition of MDP-stimulated TNF-alpha production preincubated for 30 mins prior to MDP stimulation measured after 6 hrs by immunoassay; format: cell-based
Chain of Nucleotide-binding oligomerization domain-containing protein 2 (Homo sapiens) (Q9HC29 whole entry, the tested form may be a part): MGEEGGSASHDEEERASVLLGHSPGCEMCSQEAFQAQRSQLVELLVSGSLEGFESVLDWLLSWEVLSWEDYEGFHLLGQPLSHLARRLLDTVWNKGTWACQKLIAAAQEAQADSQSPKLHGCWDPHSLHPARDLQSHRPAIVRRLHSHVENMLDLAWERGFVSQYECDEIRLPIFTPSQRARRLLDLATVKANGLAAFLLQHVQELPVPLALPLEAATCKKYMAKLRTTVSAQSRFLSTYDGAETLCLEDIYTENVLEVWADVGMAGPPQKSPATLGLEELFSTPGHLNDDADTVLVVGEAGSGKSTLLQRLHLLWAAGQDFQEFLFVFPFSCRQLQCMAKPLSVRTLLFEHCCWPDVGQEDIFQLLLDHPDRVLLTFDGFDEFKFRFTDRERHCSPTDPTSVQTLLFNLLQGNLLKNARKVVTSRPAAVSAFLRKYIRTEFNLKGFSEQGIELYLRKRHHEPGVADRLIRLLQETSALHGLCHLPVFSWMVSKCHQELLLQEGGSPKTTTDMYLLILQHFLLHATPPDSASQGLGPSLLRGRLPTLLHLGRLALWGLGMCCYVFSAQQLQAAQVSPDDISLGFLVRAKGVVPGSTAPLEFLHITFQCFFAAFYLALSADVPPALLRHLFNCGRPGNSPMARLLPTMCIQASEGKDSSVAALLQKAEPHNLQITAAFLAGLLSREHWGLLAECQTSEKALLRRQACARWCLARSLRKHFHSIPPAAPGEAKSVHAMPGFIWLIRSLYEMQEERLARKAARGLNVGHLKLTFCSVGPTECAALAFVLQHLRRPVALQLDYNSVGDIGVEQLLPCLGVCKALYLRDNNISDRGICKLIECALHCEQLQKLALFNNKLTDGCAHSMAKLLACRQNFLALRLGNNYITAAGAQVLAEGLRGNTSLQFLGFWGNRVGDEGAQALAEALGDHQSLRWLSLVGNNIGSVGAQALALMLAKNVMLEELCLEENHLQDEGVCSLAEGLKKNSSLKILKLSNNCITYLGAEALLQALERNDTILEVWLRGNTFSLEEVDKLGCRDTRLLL

[12] = target: T2, Aurora kinase A (Homo sapiens) (UniProt O14965); experiment: Inhibition of human full length N-terminal GST-tagged aurora-a expressed in baculovirus expression system at 1 uM
T2 sequence (whole entry): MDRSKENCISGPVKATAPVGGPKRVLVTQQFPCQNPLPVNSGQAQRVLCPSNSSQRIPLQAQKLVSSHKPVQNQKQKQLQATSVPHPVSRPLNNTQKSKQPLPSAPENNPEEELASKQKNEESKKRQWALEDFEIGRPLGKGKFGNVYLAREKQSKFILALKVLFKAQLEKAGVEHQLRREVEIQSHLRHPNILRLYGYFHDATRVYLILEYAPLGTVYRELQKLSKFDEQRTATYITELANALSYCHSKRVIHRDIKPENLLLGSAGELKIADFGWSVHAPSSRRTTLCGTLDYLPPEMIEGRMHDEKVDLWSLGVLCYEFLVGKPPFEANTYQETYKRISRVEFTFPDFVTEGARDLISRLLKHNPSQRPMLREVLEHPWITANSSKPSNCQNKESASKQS

[13] = target: T1, Receptor-interacting serine/threonine-protein kinase 3; experiment: Inhibition of RIPK3 (unknown origin) preincubated for 10 mins followed by addition of fluorescent-labeled 2-Methyl-5-(2-propen-l-yloxy)aniline measured after 10 mins by fluorescence polarization assay
Target sequence in this assay (Q9Y572 whole entry): as the sequence (Q9Y572 whole entry, looked up) above

[14] = target: Vascular endothelial growth factor receptor 2 (Homo sapiens, UniProt P35968)
Chain of Vascular endothelial growth factor receptor 2 (P35968 whole entry): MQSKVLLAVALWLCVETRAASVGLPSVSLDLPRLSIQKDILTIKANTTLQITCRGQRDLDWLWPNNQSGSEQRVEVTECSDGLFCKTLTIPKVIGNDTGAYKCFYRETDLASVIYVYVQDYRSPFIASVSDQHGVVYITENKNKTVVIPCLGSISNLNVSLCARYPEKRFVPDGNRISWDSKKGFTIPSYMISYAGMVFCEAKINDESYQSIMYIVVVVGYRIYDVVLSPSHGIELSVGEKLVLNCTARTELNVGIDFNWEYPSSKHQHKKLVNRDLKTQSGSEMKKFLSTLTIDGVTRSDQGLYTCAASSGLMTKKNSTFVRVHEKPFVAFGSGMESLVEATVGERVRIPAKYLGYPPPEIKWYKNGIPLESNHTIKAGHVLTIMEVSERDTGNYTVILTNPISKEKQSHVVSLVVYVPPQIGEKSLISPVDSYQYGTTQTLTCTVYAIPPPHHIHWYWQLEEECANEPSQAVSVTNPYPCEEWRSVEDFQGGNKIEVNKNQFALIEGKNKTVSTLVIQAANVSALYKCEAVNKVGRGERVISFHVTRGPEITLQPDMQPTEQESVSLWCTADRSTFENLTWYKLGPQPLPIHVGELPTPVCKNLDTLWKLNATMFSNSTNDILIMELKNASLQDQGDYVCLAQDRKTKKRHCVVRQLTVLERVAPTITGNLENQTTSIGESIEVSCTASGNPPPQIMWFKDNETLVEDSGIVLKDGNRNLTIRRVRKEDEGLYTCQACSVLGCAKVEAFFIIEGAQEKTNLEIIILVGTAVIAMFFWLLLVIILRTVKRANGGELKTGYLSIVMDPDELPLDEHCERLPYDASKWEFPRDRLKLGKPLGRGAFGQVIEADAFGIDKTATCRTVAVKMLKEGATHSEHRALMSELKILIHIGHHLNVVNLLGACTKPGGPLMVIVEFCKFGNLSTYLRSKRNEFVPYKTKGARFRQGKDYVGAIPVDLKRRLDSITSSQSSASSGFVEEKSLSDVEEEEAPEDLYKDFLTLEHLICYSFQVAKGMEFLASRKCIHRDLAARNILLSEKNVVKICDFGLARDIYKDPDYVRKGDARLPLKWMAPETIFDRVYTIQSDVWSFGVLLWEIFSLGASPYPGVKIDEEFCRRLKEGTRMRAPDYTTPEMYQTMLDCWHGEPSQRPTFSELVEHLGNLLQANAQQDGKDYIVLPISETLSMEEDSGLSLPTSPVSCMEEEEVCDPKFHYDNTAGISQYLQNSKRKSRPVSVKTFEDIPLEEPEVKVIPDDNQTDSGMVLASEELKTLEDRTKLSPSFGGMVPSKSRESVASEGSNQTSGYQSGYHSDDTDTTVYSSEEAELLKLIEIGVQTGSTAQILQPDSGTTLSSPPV

[15] = Clearance in C57BL/6 mouse at 2 mg/kg, po or 1 mg/kg, iv by LC-MS/MS analysis; format: ADME, organism-based; conditions: in vivo
[16] = target: T3, Interleukin-1 receptor type 1 (Homo sapiens) (UniProt P14778); experiment: Activation of IL-1R in human monocytes assessed as inhibition of IL-1beta-stimulated TNF-alpha production preincubated for 30 mins prior to IL-1beta stimulation at 1 uM measured after 6 hrs by immunoassay; format: cell-based
T3 sequence (whole entry): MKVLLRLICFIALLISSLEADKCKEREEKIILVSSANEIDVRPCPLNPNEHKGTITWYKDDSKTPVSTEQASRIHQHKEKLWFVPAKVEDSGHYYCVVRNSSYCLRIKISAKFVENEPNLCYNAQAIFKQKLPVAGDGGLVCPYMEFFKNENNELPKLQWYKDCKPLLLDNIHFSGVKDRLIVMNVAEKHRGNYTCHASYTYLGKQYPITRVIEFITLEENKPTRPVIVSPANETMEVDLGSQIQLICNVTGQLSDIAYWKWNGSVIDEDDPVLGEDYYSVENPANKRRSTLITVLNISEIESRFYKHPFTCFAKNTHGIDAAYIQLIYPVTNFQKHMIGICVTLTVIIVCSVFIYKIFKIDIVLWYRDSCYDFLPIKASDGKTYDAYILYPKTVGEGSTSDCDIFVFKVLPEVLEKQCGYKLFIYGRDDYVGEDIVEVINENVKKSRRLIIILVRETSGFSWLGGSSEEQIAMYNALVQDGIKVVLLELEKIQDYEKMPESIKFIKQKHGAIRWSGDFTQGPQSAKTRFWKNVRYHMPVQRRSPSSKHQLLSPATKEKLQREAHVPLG

[17] = Half life in C57BL/6 mouse at 2 mg/kg, po or 1 mg/kg, iv by LC-MS/MS analysis; format: ADME, organism-based; conditions: in vivo
Intestinal mucosa [18] = experiment: Inhibition of IL6 production in intestinal mucosa derived from ulcerative colitis patient measured after 24 hrs by sandwich ELISA; format: functional, tissue-based; conditions: Homo sapiens
[19] = target: Protein-tyrosine kinase 6 (Homo sapiens) (UniProt Q13882); experiment: Inhibition of human full length N-terminal GST-tagged BRK expressed in baculovirus expression system at 1 uM
Chain of Protein-tyrosine kinase 6 (Homo sapiens) (Q13882 whole entry, looked up): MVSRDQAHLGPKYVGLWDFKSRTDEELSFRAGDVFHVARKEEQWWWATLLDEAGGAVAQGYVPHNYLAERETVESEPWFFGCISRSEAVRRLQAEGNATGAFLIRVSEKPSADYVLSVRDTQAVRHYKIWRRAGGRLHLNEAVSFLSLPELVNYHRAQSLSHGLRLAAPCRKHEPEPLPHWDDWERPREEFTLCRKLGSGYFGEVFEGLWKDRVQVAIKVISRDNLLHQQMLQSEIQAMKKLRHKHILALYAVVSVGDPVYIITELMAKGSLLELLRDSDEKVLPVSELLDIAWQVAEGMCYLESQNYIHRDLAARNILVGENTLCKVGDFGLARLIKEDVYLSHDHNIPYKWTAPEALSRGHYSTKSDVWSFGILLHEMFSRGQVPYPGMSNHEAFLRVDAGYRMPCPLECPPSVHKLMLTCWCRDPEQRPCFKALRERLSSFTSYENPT

[20] = Volume of distribution at steady state in Sprague-Dawley rat at 2 mg/kg, po or 1 mg/kg, iv by LC-MS/MS analysis; format: ADME, organism-based; conditions: in vivo, read-out: Vdss
Intestinal mucosa [21] = experiment: Inhibition of IL6 production in intestinal mucosa derived from Crohn's disease patient measured after 24 hrs by sandwich ELISA; format: functional, tissue-based; conditions: Homo sapiens
[22] = target: Mitogen-activated protein kinase 14 (Homo sapiens, UniProt Q16539)
Chain of Mitogen-activated protein kinase 14 (Q16539 whole entry): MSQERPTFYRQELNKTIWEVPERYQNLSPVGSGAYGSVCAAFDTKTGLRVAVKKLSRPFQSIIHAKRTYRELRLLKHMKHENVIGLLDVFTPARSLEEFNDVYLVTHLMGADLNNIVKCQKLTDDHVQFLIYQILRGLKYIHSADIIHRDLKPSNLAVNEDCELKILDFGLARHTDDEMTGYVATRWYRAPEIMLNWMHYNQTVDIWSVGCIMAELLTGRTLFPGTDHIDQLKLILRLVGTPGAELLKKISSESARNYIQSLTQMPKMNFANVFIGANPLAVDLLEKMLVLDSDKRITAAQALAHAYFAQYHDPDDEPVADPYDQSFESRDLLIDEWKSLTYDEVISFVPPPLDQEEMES

CC(C)(C)S(=O)(=O)c1ccc2nccc(Nc3n[nH]c4ccc(F)cc34)c2c1
Vd [1]: 1.2 L/kg
fraction unbound [2]: 0.026
inhibition [3]: Active
AUC [4]: 860 ng·h/mL
AUC [5]: 980 ng·h/mL
inhibition (Intestinal mucosa [6]): Dose-dependent effect
inhibition (Homo sapiens): Active
Cmax [7]: 340 ng/mL
inhibition [8]: inactive
bioavailability [9]: 39%
inhibition (Mus musculus): inactive
clearance [10]: 15 mL/min/kg
inhibition [11]: Active
inhibition [12]: 30%
IC50 [13]: 0.016 µM
IC50 [14]: > 5 µM
clearance [15]: 13 mL/min/kg
inhibition [16]: Active
half-life [17]: 2.1 h
inhibition (Intestinal mucosa [18]): Dose-dependent effect
inhibition [19]: 30%
Vd [20]: 2 L/kg
inhibition (Intestinal mucosa [21]): Dose-dependent effect
IC50 [22]: 5.12 µM
